The values that follow come from patent US12202816B2 (CALLIDITAS THERAPEUTICS SUISSE SA, priority 2018, dated 2025).

The test concerns the target hNOX enzymes. The test can be described thus: ROS production measurement on hNOX membranes (Amplex Red fluorescence assay, assay 1). In kind it is biochemical, human. The settings on record: membranes from CHO or HEK cells overexpressing hNox enzymes; Nox isoform not stated; non linear regression; read-out: Nox inhibitory constant Ki. Here is the method: Reactive oxygen species (ROS) production generated by hNOX enzymes was measured by fluorescence in both cellular and membrane-based assays using the Amplex® Red reagent. In the presence of horseradish peroxidase (HRP), the Amplex® Red reagent (10-acetyl-3,7-dihydroxyphenoxazine, AR), which is a colorless and nonfluorescent derivative of dihydroresorufin, reacts with H2O2 with a 1:1 stoichiometry to produce highly fluorescent resorufin at an excitation and emission wavelengths of 544 nm and 590 nm, respectively.
Membranes from CHO or HEK cells overexpressing hNox enzymes were prepared as previously described (Palicz et al., 2001, J. Biol. Chem, 76, 3090). After resuspension in sonication buffer (11% sucrose, 120 mM NaCl, 1 mM EGTA in PBS, pH 7.4), cells were broken by sonication and centrifuged (200 g, 10 min). The supernatant was layered onto a 17/40% (w/v) discontinuous sucrose gradient and centrifuged (150,000 g for 30 min). Membrane fractions were collected from the 17/40% interface, aliquoted in 10 μl samples and were stored at −80° C. Protein concentration was determined with Bradford reagent. Flavin Adenine Dinucleotide (FAD) (catalog #F6625-500MG), MgCl2 (catalog #M8266-100G), Phosphatidic Acid (PA) (catalog #P3591-50MG) were purchased from Sigma-Aldrich. Horseradish peroxidase (HRP) (catalog #10108090001) was purchased from Roche. NADPH (catalog #A1395, 0500) was purchased from Applichem. Amplex red (AR) (catalog #A22177) was purchased from Invitrogen. 96 well polypropylene and black plates were purchased from Milian (catalog #055529 and #055218, respectively). FLUOstar OPTIMA microplate reader was supplied by BMG Labtech (Germany). Zephyr® Compact Liquid Handling Workstation was supplied by PerkinElmer (Germany).
Assay 1: ROS Production Measurement on hNOX Membranes
All Solutions were placed on ice and protected from light. The final concentration in the 1× hNOX membrane fluorescent assay buffer were PBS pH7, 6 μM FAD, 15 μM PA, 1 mM MgCl2, 12.5 μM AR, 0.02 u/ml, 125 ng membranes, 1.5 μg of cofactors and 30 μM NADPH. The NADPH was dissolved in water at a concentration of 12 mM and was transferred in a metal transfer plate kept at 4° C. The NADPH was added to the assay plate to initiate the reaction just before the measurement.
Serial dilution (1:3, 10 serial dilution) of the compounds was performed in 100% DMSO in 96 well polypropylene plate—Row B—H Column 1-10, Row A, Column 1-10 contained reference compound. Starting concentration was 10^−2 M (10 mM). Final concentration in assay was 10^−4 M (100 μM). Compounds were diluted twice in PBS buffer by transferring 30 μl/well of PBS into 30 μl/well compounds sample in DMSO using Zephyr® Compact Liquid Handling Workstation. Control wells-columns 1 and 12-contained 60 μl DMSO in 50% PBS pH7.
Reaction mixture is dispensed using Zephyr® Compact Liquid Handling Workstation. 90 μl of mix with membrane were dispensed into 96 well black plates—Column 2-11, Column 1 Row A-D, Column 12 Row E-H. 90 μl of control mix were dispensed into assay plate—Column 1 Row E-H, Column 12 Row A-D, which are wells for measuring background signal. 2 μl of compounds were dispensed into each well of assay plate using Zephyr® Compact Liquid Handling Workstation. The reaction mixture with compounds was incubated in assay plates for 20 min at 37° C. in a Titramax microplate incubator with gentle agitation. 10 μl of NADPH is dispensed to the assay plate. Fluorescence reading was recorded with the FLUOstar OPTIMA microplate reader for 10 min at 37° C. (8 cycles, 1 cycle duration 55 sec).
The Table 14 below summarizes the inhibition of NOX activity as measured by the above described assay 1 and expressed by their inhibitory constant calculated by non linear regression analysis using GraphPad Prism Software (GraphPad Software Co., San Diego, CA): […]
Take `COc1cc(-c2ccc3[nH]c(-c4ccnc(C)c4)cc3c2)ccn1` [Example 1, 5-(2-methoxypyridin-4-yl)-2-(2-methylpyridin-4-yl)-1H-indole]: the Ki (as a rule, a measure of affinity in units of concentration, obtained from inhibition or displacement) came out at 486 nM.

For `Cc1cc(-c2cc3cc(-c4ccnc(N)c4)ccc3[nH]2)ccn1` [Example 5, 4-(2-(2-methylpyridin-4-yl)-1H-indol-5-yl)pyridin-2-amine], the Ki turned out to be 348 nM. With `Cc1cc(-c2cc3cc(-c4cncc(F)c4)ccc3[nH]2)ccn1` [Example 6, 5-(5-fluoropyridin-3-yl)-2-(2-methylpyridin-4-yl)-1H-indole], the Ki was 750 nM. Next, `Cc1cc(-c2cc3cc(-c4cncc(N(C)C)c4)ccc3[nH]2)ccn1` [Example 9, N,N-dimethyl-5-(2-(2-methylpyridin-4-yl)-1H-indol-5-yl)pyridin-3-amine]: 805 nM; `Cc1cc(-c2cc3cc(-c4ccc5[nH]c(C)nc5c4)ccc3[nH]2)ccn1` [Example 12, 2-methyl-5-(2-(2-methylpyridin-4-yl)-1H-indol-5-yl)-1H-benzo[d]imidazole]: 590 nM; `COc1cncc(-c2ccc3[nH]c(-c4ccnc(N5CCC5)c4)cc3c2)c1` [Example 13, 2-(2-(azetidin-1-yl)pyridin-4-yl)-5-(5-methoxypyridin-3-yl)-1H-indole]: 315 nM. With `COc1cncc(-c2ccc3[nH]c(-c4ccnc(OC)c4)cc3c2)c1` [Example 14, 5-(5-methoxypyridin-3-yl)-2-(2-methoxypyridin-4-yl)-1H-indole], the inhibition constant Ki worked out at 41 nM. In the case of `COc1cncc(-c2ccc3[nH]c(-c4ccnc(C)n4)cc3c2)c1` [Example 16, 5-(5-methoxypyridin-3-yl)-2-(2-methylpyrimidin-4-yl)-1H-indole], the Ki was found to be 666 nM. Take `COc1cncc(-c2ccc3[nH]c(-c4csc(C)n4)cc3c2)c1` [Example 18, 4-(5-(5-methoxypyridin-3-yl)-1H-indol-2-yl)-2-methylthiazole]: the Ki worked out at 958 nM. On to `COc1cncc(-c2ccc3[nH]c(-c4ccnc(C5CC5)c4)cc3c2)c1` [Example 19, 2-(2-cyclopropylpyridin-4-yl)-5-(5-methoxypyridin-3-yl)-1H-indole], for which the Ki was 231 nM.

As to `COc1cncc(-c2ccc3[nH]c(-c4ccnc(N5CC(O)C5)c4)cc3c2)c1` [Example 20, 1-(4-(5-(5-methoxypyridin-3-yl)-1H-indol-2-yl)pyridin-2-yl)azetidin-3-ol], the Ki was determined as 158 nM. Take `COc1cncc(-c2ccc3[nH]c(-c4ccnc(N5CCOCC5)c4)cc3c2)c1` [Example 23]: the Ki came to 296 nM. With `COc1cncc(-c2ccc3[nH]c(-c4cncc(F)c4)cc3c2)c1` [Example 24, 2-(5-fluoropyridin-3-yl)-5-(5-methoxypyridin-3-yl)-1H-indole] the figure was 311 nM; with `Cc1cc(-c2ccc3[nH]c(-c4ccc(N5CCOCC5)nc4)cc3c2)ccn1` [Example 26], 221 nM. Next, `COc1cncc(-c2ccc3[nH]c(-c4ccc(C5COC5)nc4)cc3c2)c1` [Example 27, 5-(5-methoxypyridin-3-yl)-2-(6-(oxetan-3-yl)pyridin-3-yl)-1H-indole]: 147 nM; `Cc1cc(-c2ccc3[nH]c(-c4ccc(N(C)C)nc4)cc3c2)ccn1` [Example 29, N,N-dimethyl-5-(5-(2-methylpyridin-4-yl)-1H-indol-2-yl)pyridin-2-amine]: 206 nM. On to `COc1cncc(-c2cc3cc(-c4ccc(N5CCC56COC6)nc4)[nH]c3cc2Cl)c1` [Example 32, 1-(5-(6-chloro-5-(5-methoxypyridin-3-yl)-1H-indol-2-yl)pyridin-2-yl)-6-oxa-1-azaspiro[3.3]heptane], for which the Ki came out at 27 nM. `COc1cncc(-c2cc3cc(-c4ccnc(N5CCC56COC6)c4)[nH]c3cc2Cl)c1` [Example 33, 1-(4-(6-chloro-5-(5-methoxypyridin-3-yl)-1H-indol-2-yl)pyridin-2-yl)-6-oxa-1-azaspiro[3.3]heptane]: the Ki came out at 36 nM. Next, `Cc1cc(-c2cc3cc(-c4ccnc(N5CCC56COC6)c4)[nH]c3cc2Cl)ccn1` [Example 34, 1-(4-(6-chloro-5-(2-methylpyridin-4-yl)-1H-indol-2-yl)pyridin-2-yl)-6-oxa-1-azaspiro[3.3]heptane]: 94 nM; `COc1cncc(-c2cc3cc(-c4ccc(N5CC(C(=O)O)C5)nc4)[nH]c3cc2Cl)c1` [Example 39, 1-(5-(6-chloro-5-(5-methoxypyridin-3-yl)-1H-indol-2-yl)pyridin-2-yl)azetidine-3-carboxylic acid]: 345 nM. For the molecule `COc1cncc(-c2cc3cc(-c4ccc(N5CCS(=O)(=O)CC5)nc4)[nH]c3cc2Cl)c1` [Example 49, 4-(5-(6-chloro-5-(5-methoxypyridin-3-yl)-1H-indol-2-yl)pyridin-2-yl)thiomorpholine 1,1-dioxide], the Ki came to 105 nM.

As for `COc1cncc(-c2cc3cc(-c4cnc5c(c4)OCCN5C)[nH]c3cc2Cl)c1` [Example 53, 7-(6-chloro-5-(5-methoxypyridin-3-yl)-1H-indol-2-yl)-4-methyl-3,4-dihydro-2H-pyrido[3,2-b][1,4]oxazine], the Ki came out at 23 nM. Regarding `COc1cncc(-c2cc3cc(-c4ccc(C(O)C5COC5)nc4)[nH]c3cc2Cl)c1` (stereo not shown) [Example 54, (5-(6-chloro-5-(5-methoxypyridin-3-yl)-1H-indol-2-yl)pyridin-2-yl)(oxetan-3-yl)methanol], the Ki stood at 415 nM.

Turning to `COc1cncc(-c2cc3cc(-c4ccc(=O)n(C)c4)[nH]c3cc2Cl)c1` [Example 57, 5-(6-chloro-5-(5-methoxypyridin-3-yl)-1H-indol-2-yl)-1-methylpyridin-2(1H)-one], the Ki came out at 142 nM. Take `COc1cncc(-c2cc(Cl)c3[nH]c(-c4ccc(N5CCOCC5)nc4)cc3c2)c1` [Example 59]: the Ki came to 552 nM.

As for `Clc1cncc(-c2cc3cc(-c4ccc(N5CCOCC5)nc4)[nH]c3cc2Cl)c1` [Example 62], the Ki came out at 136 nM. With `COc1cncc(-c2ccc3[nH]c(-c4ccnc(C)c4)cc3c2Cl)c1` [Example 65], the Ki was found to be 122 nM. Next, `COc1cncc(-c2cc3cc(-c4ccnc(C)c4)[nH]c3cc2C)c1` [Example 68]: 406 nM. Next, `Cc1c(-c2ccncc2)ccc2[nH]c(-c3ccncc3)cc12` [Example 69]: 601 nM. For `Cc1cc(-c2cc3cc(-c4cncc(OCC5CC5)c4)ccc3[nH]2)ccn1` [Example 81], the Ki came to 289 nM. With `COc1cc(-c2ccc3[nH]c(-c4ccnc(C)c4)cc3c2)cnc1OCc1ccccc1` [Example 83] the figure was 657 nM. With `Clc1cc2[nH]c(-c3ccc(N4CCOCC4)nc3)cc2cc1-c1cncc2sccc12` [Example 89] the figure was 103 nM; with `Fc1ccc2nccc(-c3cc4cc(-c5ccc(N6CCOCC6)nc5)[nH]c4cc3Cl)c2c1` [Example 90], 205 nM.

In the case of `COc1ccc2c(-c3cc4cc(-c5ccc(N6CCOCC6)nc5)[nH]c4cc3Cl)cccc2n1` [Example 92], the Ki was 770 nM. Next, `CN(C)c1cc(-c2cc3cc(-c4ccnc5ccc(F)cc45)ccc3[nH]2)ccn1` [Example 93, 4-(5-(6-fluoroquinolin-4-yl)-1H-indol-2-yl)-N,N-dimethylpyridin-2-amine]: 26 nM; `c1ccc2c(-c3ccc4[nH]c(-c5ccncc5)cc4c3)ccnc2c1` [Example 101]: 300 nM. Next, `COc1cncc(-c2ccc3[nH]c(-c4ccncn4)cc3c2)c1` [Example 109]: 806 nM.
